Results on one molecule are retold here after PMC6505380, “An Extensively Humanized Mouse Model to Predict Pathways of Drug Disposition and Drug/Drug Interactions, and to Facilitate Design of Clinical Trials” (Drug Metabolism and Disposition, 2019).

Data set [1] in a line: Pharmacokinetics of S-acenocoumarol in 8HUM and CypC4KO mice: effect of sulfaphenazole. In kind it is in vivo, mouse. The conditions noted are these: S-acenocoumarol 1 mg/kg oral. The protocol:
Mice were administered two daily doses of SJW before receiving a single oral dose of S-acenocoumarol (1 mg/kg). S-acenocoumarol was dissolved in dimethyl sulfoxide (1 mg/ml) and diluted 10-fold in 100 mM potassium phosphate buffer (pH8) or in a solution of sulfaphenazole (9.78 mg/ml) in the same buffer. Compounds were administered to mice at a volume of 10 ml/kg. Blood collection and sample preparation was performed as described above and analytical details are provided in Supplemental Data.
Fig. 6. […] (A) In vitro microsomal stability assay. […] Values show are mean ± S.D.

On the set-up of data set [2]: method as in Thijssen et al., 2001; unit not given beside the values. As to conditions: man; ref Thijssen et al., 2001; cited from earlier work.
A short description of data set [3]: Microsomal stability of S-acenocoumarol. As to conditions: 1 μM, 2 mg protein/ml.
Protocol: The reaction mixture aliquots were taken at specified time points and mixed with an equal volume of acetonitrile containing warfarin (50 ng/ml) as an internal standard. […] The concentrations of S-acenocoumarol were measured by LC-MS/MS. Chromatographic separation was performed on a Kinetex C18 100 Å column (2.6 μm; 5.0 × 2.1 mm) (Phenomenex) using an injection volume of 10 μl and a run time of 7 minutes. The detector used was a Micromass Quattro Micro mass spectrometer (Waters Corporation) run in electrospray positive ion mode.
In a further data set the target is CYP2C9 (Homo sapiens, UniProt P11712). More on the design: pooled rifampicin-treated male and female 8HUM mice (8HUM) or pooled human liver microsomes (HLM); host or cells: liver microsomes: pooled human liver; liver of 8HUM mice carrying human CYP2C9 driven by the albumin promoter. As to conditions: man; ref Thijssen et al., 2001; cited from earlier work.
Chain of CYP2C9 (P11712 whole entry): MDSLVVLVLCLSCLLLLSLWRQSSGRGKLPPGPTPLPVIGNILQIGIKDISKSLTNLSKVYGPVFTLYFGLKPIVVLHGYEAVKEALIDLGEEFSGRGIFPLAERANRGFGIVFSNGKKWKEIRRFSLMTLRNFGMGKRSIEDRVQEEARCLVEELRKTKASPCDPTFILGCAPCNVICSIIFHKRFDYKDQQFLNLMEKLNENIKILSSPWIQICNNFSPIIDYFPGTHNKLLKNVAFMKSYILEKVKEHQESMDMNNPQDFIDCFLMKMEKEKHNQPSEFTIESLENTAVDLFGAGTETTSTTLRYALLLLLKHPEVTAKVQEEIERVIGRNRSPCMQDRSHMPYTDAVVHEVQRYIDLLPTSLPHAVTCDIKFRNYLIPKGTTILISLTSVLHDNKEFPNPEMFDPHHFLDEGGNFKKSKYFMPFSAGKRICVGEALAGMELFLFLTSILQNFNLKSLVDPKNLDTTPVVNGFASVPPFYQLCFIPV

Turning to `CC(=O)C[C@@H](c1ccc([N+](=O)[O-])cc1)c1c(O)c2ccccc2oc1=O` [S-acenocoumarol], the AUC amounted to 2008 ± 159 ng·h/mL in data set [1] (SJW-pretreated 8HUM mice, coadministered sulfaphenazole); 230 ± 30 ng·h/mL in data set [1] (SJW-pretreated 8HUM mice, vehicle-treated); 2520 ± 214 ng·h/mL in data set [1] (SJW-pretreated CypC4KO mice). Further, the “AUCR in CYP2C9 extensive versus poor metabolizers” value in data set [2] is recorded as 16.3. Besides, the “Metabolism in liver microsomes” value in data set [3] (liver microsomes from CYP2C9 humanized mice) is listed as “rapidly metabolized”; in data set [3] (microsomes from wild-type, Cyp2cKO, Cyp2c/2d/3a KO, or hepatic P450 reductase-null mice), “practically indistinguishable from that in the no cofactor control”. In addition, the “fraction metabolized by CYP2C9” value on CYP2C9 is recorded as 0.94.
